How the values were obtained:
Type in all cases: cell-based
SMARCA2 [1] = molecular target: T1, SMARCA2 (Homo sapiens, UniProt P51531); assay: MSD SMARCA2 degradation in A549 cell line; settings: for SMARCA2 MSD A549 degradation 24 h: Average Dmax % / DC50: A549 cells; for DC50 / Dmax: 24 h; for DC50: read-out: SMARCA2 MSD A549 degradation 24 h: Average external-Abs DC50; for Dmax: A549, A549 cells
Method: Example 10. MSD SMARCA2 Degradation in A549 Cell Line
Cells were seeded into 96-well plates (A549 cells: 2×10^4 cells/well/100 ul media) and incubated overnight. The next day, 200 nL compound were added into the intermediate plate with Echo (Labcyte 550) from source plate containing a 3-fold serial dilution from top concentration of 1 mM. The culture medium was changed with 8 0ul of fresh medium and 80 μL of 2× compound solution was added into the well to make a final concentration of 1000 nM, 333.3 nM, 111.1 nM, 37.04 nM, 12.35 nM, 4.115 nM, 1.372 nM, 0.457 nM, 0.152 nM and 0 nM (DMSO). The wells were mixed and then incubated for 24 hours. The media was aspirated from the cultures and 60 ul pre-chilled PIPA lysis buffer (Boston BioProducts BP-115D) with protease/phosphatase inhibitor (Roche 05892791001/Roche 04906837001) was added into the well to lyze the cells for 20 minutes at 4° C. The MSD plate (L15XA) was coated with 40 uL cell lysate and incubated at 4° C. overnight. The next day, the plate was washed three times with TBST (CST #9997S), 150 ul/well. The MSD plates was blocked with 150 ul blocking buffer per well and shaked for 1 hr at RT, 600 rpm. The blocking buffer was 3% Blocker A (MSD, R93BA-4) in TBST. The MSD plate was washed three times with 150 uL/well of TBST and 25 ul/well of detection antibody (Rabbit anti-SMARCA2/BRM antibody, 100 μg/mL, ab223735) was added at final concentration of 1 μg/mL diluted in 1% Blocking buffer and shaken for 1 hour at RT, 600 rpm. The MSD plate was washed three times with 150 ul/well of TBST and 25 ul/well of SULFO-TAG anti-rabbit antibody (MSD, R32AB-1) was added at final concentration of 1 μg/ml diluted in 1% Blocking buffer and shaken for 1 hour at RT, 600 rpm. The MSD plate was washed three times with 150 uL/well of TBST and 150 ul/well of 2× MSD reading buffer diluted from 4× (MSD, R92TC-2) with water was added. Lastly, the MSD instrument was read.
The letter codes for SMARCA2 degradation potency (DC50) include: A (<10 nM), B (10-50 nM), C (>50-100 nM), and D (>100 nM). The letter codes for the percentage of SMARCA degradation after 24 hours (Dmax %) include: A (>90% degradation), B (>70-90% degradation), C (50-70% degradation), and D (<50% degradation).

SMARCA2 [2] = molecular target: T1, SMARCA2; assay: SMARCA2 Western blot degradation in MV4-11 cells; design: SMARCA2/SMARCA4 protein degradation selectivity in MV4-11 cells; endogenous in cells; host or cells: MV4-11; settings: for Dmax: MV4-11, MV4-11 cells, read-out: SMARCA2 MSD MV411 degradation 24 h: average Dmax %; for Dmax / DC50 / SMARCA2 MSD MV411 degradation 24 h: average Dmax %: 24 h; for DC50 / SMARCA2 MSD MV411 degradation 24 h: average Dmax % / Selectivity in MV411: MV4-11 cells; for DC50: read-out: SMARCA2 MSD MV411 degradation 24 h: Mean external-Abs DC50; for Selectivity in MV411: SMARCA2/4 selectivity
SMARCA4 = molecular target: T2, SMARCA4 (Homo sapiens, UniProt P51532); assay: SMARCA4 Western blot degradation in MV4-11 cells; settings: 24 h; for Dmax: MV4-11, MV4-11 cells, read-out: SMARCA4 MSD MV411 degradation 24 h: average Dmax %; for DC50: MV4-11 cells, read-out: SMARCA4 MSD MV411 degradation 24 h: Mean external-Abs DC50
T2 construct: SMARCA2/SMARCA4 protein degradation selectivity in MV4-11 cells; endogenous in cells; host or cells: MV4-11
T2 sequence (P51532 whole entry): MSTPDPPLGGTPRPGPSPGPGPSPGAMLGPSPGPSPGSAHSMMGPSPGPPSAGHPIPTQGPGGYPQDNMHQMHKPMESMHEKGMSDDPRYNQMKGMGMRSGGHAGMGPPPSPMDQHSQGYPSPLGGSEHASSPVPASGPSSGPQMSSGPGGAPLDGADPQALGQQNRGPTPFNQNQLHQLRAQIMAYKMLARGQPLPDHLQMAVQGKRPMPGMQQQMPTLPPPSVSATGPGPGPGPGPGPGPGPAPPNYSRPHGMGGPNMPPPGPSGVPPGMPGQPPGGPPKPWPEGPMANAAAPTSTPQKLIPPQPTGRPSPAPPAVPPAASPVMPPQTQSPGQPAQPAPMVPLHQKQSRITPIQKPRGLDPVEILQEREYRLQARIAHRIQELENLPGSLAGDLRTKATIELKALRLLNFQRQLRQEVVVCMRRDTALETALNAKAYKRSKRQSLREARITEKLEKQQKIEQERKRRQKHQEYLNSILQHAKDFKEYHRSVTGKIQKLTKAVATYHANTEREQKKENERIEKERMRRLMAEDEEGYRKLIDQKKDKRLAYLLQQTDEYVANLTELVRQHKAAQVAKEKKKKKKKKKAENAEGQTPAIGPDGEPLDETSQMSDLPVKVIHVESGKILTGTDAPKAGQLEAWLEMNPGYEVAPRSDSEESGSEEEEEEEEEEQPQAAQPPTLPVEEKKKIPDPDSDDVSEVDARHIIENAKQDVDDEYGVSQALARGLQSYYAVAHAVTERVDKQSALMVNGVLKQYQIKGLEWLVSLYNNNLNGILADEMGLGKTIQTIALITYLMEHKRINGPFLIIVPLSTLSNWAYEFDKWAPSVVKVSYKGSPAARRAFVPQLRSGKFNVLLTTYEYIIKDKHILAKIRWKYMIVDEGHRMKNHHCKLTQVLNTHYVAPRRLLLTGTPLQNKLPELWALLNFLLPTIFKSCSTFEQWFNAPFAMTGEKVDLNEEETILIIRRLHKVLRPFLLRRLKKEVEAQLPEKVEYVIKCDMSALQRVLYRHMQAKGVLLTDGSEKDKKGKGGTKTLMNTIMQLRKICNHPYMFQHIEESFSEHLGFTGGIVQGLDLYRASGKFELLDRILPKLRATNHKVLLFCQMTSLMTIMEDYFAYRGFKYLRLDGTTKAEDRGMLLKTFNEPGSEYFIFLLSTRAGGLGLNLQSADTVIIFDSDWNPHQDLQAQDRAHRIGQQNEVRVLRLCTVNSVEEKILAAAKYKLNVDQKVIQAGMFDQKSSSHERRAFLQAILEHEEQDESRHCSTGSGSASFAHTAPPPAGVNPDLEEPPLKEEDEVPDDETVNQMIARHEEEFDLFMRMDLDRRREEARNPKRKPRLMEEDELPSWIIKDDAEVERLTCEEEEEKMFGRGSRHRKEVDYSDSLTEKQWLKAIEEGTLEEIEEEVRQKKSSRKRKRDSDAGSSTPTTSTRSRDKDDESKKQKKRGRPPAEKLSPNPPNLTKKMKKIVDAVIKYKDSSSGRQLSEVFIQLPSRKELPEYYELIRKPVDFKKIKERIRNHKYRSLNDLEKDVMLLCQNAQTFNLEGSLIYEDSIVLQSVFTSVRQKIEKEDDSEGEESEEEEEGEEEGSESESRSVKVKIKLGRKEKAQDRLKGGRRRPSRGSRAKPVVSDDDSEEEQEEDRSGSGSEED
Method: Example 11. SMARCA2 and SMARCA4 Western Blot MV4-11 Degradation
Cells were seeded into 6-well plates (MV4-11:4×10^6 cells/well/1 ml) and 1 ml of 2× compound solution was added into the well to make the final concentration and the plates were mixed well and incubated for 24 hours (No cytotoxicity was observed). The cell were collected with media and spun at 3000 rpm for 5 minutes. The supernatant was aspirated and the well and the cells were washed with cold PBS once and combined for centrifugation again; the supernatant aspirated again. 200 uL pre-chilled RIPA lysis buffer (Boston BioProducts BP-115D) with protease/phosphatase inhibitor (Roche 05892791001/Roche 04906837001) was directly added into the tube to lyze the cells for 20 minutes on ice. The cell lysate were collected into EP tubes and spun at 13000 rpm for 20 minutes and 72 uL supernatant was transferred to a fresh EP tube containing 18 μL of 5× loading buffer (Beyotime Bio P0015) to make the loading samples. The samples were heated to 100° C. for 10 minutes and cooled to RT and microcentrifuged. 20 μL of samples were loaded onto SDS-PAGE gel (Novex, WG1402BOX) and the gel was run at 80 V for 20 minutes and 120 V for 1.5 hours. The samples were electrotransfer to a NC membrane using wet-transfer method with 250 mA for 2.5 hours. The membrane was blocked with LICOR blocking buffer (LI COR,927-50000) for 1 hour. The membrane was washed three times with TBST(CST #9997S), 5 minutes each. Incubation was performed with primary antibody prepared in blocking buffer with 0.1% Tween-20 (Solarbio, P8220) at 4° C. overnight (Anti-SMARCA2/BRM antibody (ab15597) 1:500; Anti-BRG1 antibody [EPR3912](ab108318) 1:1000; Rabbit anti-Bafl80 antibody [EPR15860](Abcam,ab196022) 1:1000; mouse anti-beta-Actin (8H10D10) (CST #3700) 1:10000). The membrane was washed three times with TBST, 5 minutes each. Incubation with secondary antibody was performed for 1 hour at RT (anti-rabbit IgG (Licor,926-32211) 1:5000; anti-mouse IgG (LI-COR, 926-68070) 1:5000). The membrane was washed three times with 5 minutes each and lastly the LiCOR was read.
The letter codes for SMARCA2/4 degradation potency (DC50) include: A (<1 nM), B (1-10 nM), C (>10-100 nM), and D (>100 nM). The letter codes for the percentage of SMARCA2/4 degradation after 24 hours (Dmax %) include: A (>90% degradation), B (>70-90% degradation), C (50-70% degradation), and D (<50% degradation). The letter codes of SMARCA2/4 selectivity include: A (>500 fold), B (>100-500 fold), C (10-100 fold), and D (<10 fold). Table 8. SMARCA2/4 Selectivity Results

T1 sequence (P51531 whole entry): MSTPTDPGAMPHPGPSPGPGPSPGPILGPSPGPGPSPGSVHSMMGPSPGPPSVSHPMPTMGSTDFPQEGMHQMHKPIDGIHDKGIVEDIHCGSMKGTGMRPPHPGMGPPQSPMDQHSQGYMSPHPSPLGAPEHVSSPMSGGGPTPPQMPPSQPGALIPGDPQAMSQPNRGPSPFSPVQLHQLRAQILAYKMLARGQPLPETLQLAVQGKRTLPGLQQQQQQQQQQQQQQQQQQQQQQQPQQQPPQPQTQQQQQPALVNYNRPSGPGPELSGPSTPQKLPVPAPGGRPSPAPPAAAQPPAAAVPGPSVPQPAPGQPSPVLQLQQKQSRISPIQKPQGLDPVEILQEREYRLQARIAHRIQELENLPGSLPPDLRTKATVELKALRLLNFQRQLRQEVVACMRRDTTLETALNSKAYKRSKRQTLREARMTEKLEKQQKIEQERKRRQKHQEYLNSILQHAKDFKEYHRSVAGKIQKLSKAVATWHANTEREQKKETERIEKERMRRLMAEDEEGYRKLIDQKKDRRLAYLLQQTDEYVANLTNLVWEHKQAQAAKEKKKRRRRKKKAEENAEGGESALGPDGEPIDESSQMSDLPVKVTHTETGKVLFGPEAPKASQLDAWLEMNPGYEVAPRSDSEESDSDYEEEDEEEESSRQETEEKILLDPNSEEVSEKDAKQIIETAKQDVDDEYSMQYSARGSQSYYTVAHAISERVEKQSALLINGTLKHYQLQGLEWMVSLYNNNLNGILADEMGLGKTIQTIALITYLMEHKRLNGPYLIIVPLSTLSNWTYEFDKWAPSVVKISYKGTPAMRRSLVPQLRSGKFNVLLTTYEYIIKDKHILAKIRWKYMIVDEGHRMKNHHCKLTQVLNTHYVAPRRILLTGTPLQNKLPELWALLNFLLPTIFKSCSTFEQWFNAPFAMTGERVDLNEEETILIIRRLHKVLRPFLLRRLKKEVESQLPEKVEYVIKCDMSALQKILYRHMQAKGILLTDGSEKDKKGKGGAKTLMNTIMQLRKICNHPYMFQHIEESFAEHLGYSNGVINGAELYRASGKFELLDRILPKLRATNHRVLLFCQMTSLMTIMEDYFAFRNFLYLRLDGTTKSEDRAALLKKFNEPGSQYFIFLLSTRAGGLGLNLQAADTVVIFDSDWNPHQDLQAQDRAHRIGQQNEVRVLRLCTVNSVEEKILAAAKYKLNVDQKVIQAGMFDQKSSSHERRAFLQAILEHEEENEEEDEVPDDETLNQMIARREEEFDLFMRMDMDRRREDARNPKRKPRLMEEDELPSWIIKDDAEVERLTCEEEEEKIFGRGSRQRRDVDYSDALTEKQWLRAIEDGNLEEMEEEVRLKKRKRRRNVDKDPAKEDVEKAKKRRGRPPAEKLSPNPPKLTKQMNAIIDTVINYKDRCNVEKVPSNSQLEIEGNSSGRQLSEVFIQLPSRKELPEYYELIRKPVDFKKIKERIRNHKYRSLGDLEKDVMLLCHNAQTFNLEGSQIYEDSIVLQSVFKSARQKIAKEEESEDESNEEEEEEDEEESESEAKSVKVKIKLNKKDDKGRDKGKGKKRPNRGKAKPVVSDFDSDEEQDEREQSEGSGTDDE

SMARCA2 MSD A549 degradation 24 h: Average Dmax % (SMARCA2 [1])	DC50 (SMARCA2 [1]) [nM]	Dmax (SMARCA2 [2]) [%]	DC50 (SMARCA2 [2]) [nM]	Dmax (SMARCA2 [1]) [%]	SMARCA2 MSD MV411 degradation 24 h: average Dmax % (SMARCA2 [2])	Dmax (SMARCA4) [%]	DC50 (SMARCA4) [nM]	Selectivity in MV411 (SMARCA2 [2])	SMILES
A (A (>90% degradation))	> 100	50 to 70	10 to 100	–	–	–	–	–	C#Cc1ccc(CNC(=O)[C@@H]2C[C@@H](O)CN2C(=O)[C@@H](NC(=O)[C@H]2CCC3(CC2)C[C@H](N2CCC(c4cnc(N5CCN6c7cc(-c8cccc(Cl)c8O)nnc7NC[C@H]6C5)nc4)CC2)C3)C(C)(C)C)cc1 (single isomer, unassigned) [I-105]
–	> 100	–	10 to 100	70 to 90	C (C (50-70% degradation))	–	–	–	C#Cc1ccc(CNC(=O)[C@@H]2C[C@@H](O)CN2C(=O)[C@@H](NC(=O)[C@H]2CCC3(CC2)C[C@H](N2CCC(c4cnc(N5CCN6c7cc(-c8cccc(Cl)c8O)nnc7NC[C@H]6C5)nc4)CC2)C3)C(C)(C)C)cc1 (single isomer, unassigned) [I-152]
–	> 100	70 to 90	1 to 10	> 90	–	–	–	–	C#Cc1ccc(CNC(=O)[C@@H]2C[C@@H](O)CN2C(=O)[C@@H](NC(=O)[C@H]2CCC3(CC2)C[C@H](N2CCC(c4cnc(N5CCN6c7cc(-c8cccc(Cl)c8O)nnc7NC[C@@H]6C5)nc4)CC2)C3)C(C)(C)C)cc1 (single isomer, unassigned) [I-153]
–	–	–	1 to 10	–	–	–	> 100	A (A (>500 fold))	Cc1ncsc1-c1ccc(CNC(=O)[C@@H]2C[C@@H](O)CN2C(=O)[C@@H](NC(=O)[C@H]2CCC3(CC2)C[C@H](N2CCC(c4cnc(N5CCN6c7cc(-c8ccccc8O)nnc7NC[C@H]6C5)nc4)CC2)C3)C(C)(C)C)cc1 (some centres unmarked) [I-71]
–	> 100	–	–	–	–	–	–	–	Cc1cc(F)ccc1C#CCNC(=O)[C@@H]1C[C@@H](O)CN1C(=O)[C@@H](NC(=O)[C@H]1CCC2(CC1)C[C@H](N1CCC(c3cnc(N4CCN5c6cc(-c7ccccc7O)nnc6NC[C@H]5C4)nc3)CC1)C2)C(C)(C)C (some centres unmarked) [I-115]

More lines, now with the values behind:

SMILES	SMARCA2 MSD A549 degradation 24 h: Average Dmax % (SMARCA2 [1])	DC50 (SMARCA2 [1]) [nM]	Dmax (SMARCA2 [2]) [%]	DC50 (SMARCA2 [2]) [nM]	Dmax (SMARCA2 [1]) [%]	SMARCA2 MSD MV411 degradation 24 h: average Dmax % (SMARCA2 [2])	Dmax (SMARCA4) [%]	DC50 (SMARCA4) [nM]	Selectivity in MV411 (SMARCA2 [2])
Cc1cc(F)ccc1C#CCNC(=O)[C@@H]1C[C@@H](O)CN1C(=O)[C@@H](NC(=O)[C@H]1CCC2(CC1)C[C@H](N1CCC(c3cnc(N4CCN5c6cc(-c7ccccc7O)nnc6NC[C@H]5C4)nc3)CC1)C2)C(C)(C)C (single isomer, unassigned) [I-106]	–	> 100	< 50	> 100	< 50	–	–	–	–
Cc1ncsc1-c1ccc(CNC(=O)[C@@H]2C[C@@H](O)CN2C(=O)[C@@H](NC(=O)[C@H]2CCC3(CC2)C[C@H](N2CCN(c4cnc(N5CCc6[nH]c7nnc(-c8ccccc8O)cc7c6[C@H]5C)nc4)CC2)C3)C(C)(C)C)cc1 (single isomer, unassigned) [I-112]	–	50 to 100	50 to 70	10 to 100	> 90	–	–	–	–
Cc1ncsc1-c1ccc(CNC(=O)[C@@H]2C[C@@H](O)CN2C(=O)[C@@H](NC(=O)[C@H]2CCC3(CC2)C[C@H](N2CCN(c4cnc(N5CCc6[nH]c7nnc(-c8ccccc8O)cc7c6[C@H]5C)nc4)CC2)C3)C(C)(C)C)cc1 (single isomer, unassigned) [I-118]	B (B (>70-90% degradation))	> 100	–	10 to 100	–	C (C (50-70% degradation))	–	–	–
C#CCOc1cc(C(C(=O)N2C[C@H](O)C[C@H]2C(=O)NCc2ccc(-c3scnc3C)cc2O[C@H]2CC[C@@H](N3CCC(c4cnc(N5CCc6[nH]c7nnc(-c8ccccc8O)cc7c6[C@@H]5C)nc4)CC3)CC2)C(C)C)on1 (some centres unmarked) [I-39]	–	> 100	–	–	50 to 70	–	–	–	–
Cc1ncsc1-c1ccc(CNC(=O)[C@@H]2C[C@@H](O)CN2C(=O)[C@@H](NC(=O)C2(F)CC2)C(C)(C)C)c(OC2CN(CCN3CCC(c4cnc(N5CCc6[nH]c7nnc(-c8ccccc8O)cc7c6C5C)nc4)CC3)C2)c1 (some centres unmarked) [I-44]	–	–	70 to 90	10 to 100	–	–	70 to 90	> 100	D (D (<10 fold))
Cc1ncsc1-c1ccc(CNC(=O)[C@@H]2C[C@@H](O)CN2C(=O)[C@@H](NC(=O)N2CCC3(CC2)CC(N2CCC(c4cnc(N5CCc6[nH]c7nnc(-c8ccccc8O)cc7c6[C@@H]5C)nc4)CC2)C3)C(C)(C)C)cc1 [I-59]	–	–	–	–	< 50	–	–	–	–
Cc1ncsc1-c1ccc(CNC(=O)[C@@H]2C[C@@H](O)CN2C(=O)[C@@H](NC(=O)N2CCC3(CC2)CC(N2CCC(c4cnc(N5CCN6c7cc(-c8ccccc8O)nnc7NC[C@H]6C5)nc4)CC2)C3)C(C)(C)C)cc1 [I-67]	–	–	< 50	> 100	–	–	< 50	> 100	C (C (10-100 fold))
Cc1ncsc1-c1ccc(CNC(=O)[C@@H]2C[C@@H](O)CN2C(=O)[C@@H](NC(=O)N2CCC3(CCC(N4CCC(c5cnc(N6CCN7c8cc(-c9ccccc9O)nnc8NC[C@H]7C6)nc5)CC4)CC3)CC2)C(C)(C)C)cc1 [I-68]	–	–	50 to 70	10 to 100	–	–	< 50	> 100	C (C (10-100 fold))
Cc1ncsc1-c1ccc(CNC(=O)[C@@H]2C[C@@H](O)CN2C(=O)[C@@H](NC(=O)N2CC3(CCC(N4CCC(c5cnc(N6CCN7c8cc(-c9ccccc9O)nnc8NC[C@H]7C6)nc5)CC4)CC3)C2)C(C)(C)C)cc1 [I-69]	–	–	> 90	< 1	–	–	> 90	1 to 10	D (D (<10 fold))
Cc1ncsc1-c1ccc(CNC(=O)[C@@H]2C[C@@H](O)CN2C(=O)[C@@H](NC(=O)N2CC3(CC(N4CCN(c5ccnc(N6CCN7c8cc(-c9ccccc9O)nnc8NC[C@H]7C6)n5)CC4)C3)C2)C(C)(C)C)cc1 [I-72]	–	–	70 to 90	< 1	–	–	70 to 90	1 to 10	D (D (<10 fold))
